{"source": "patent US6083986A", "about": "“Potassium channel inhibitors” (ICAgen, Inc., priority 1997, dated 2000)", "key": {"[1]": {"biological_target": "T1, human Kv1.5 potassium channel (Homo sapiens, UniProt P22460)", "T1 construct": "Error-free parts of these clones were then ligated together to form a complete cDNA construct; expressed in transfected cells", "T1 sequence (P22460 whole entry)": "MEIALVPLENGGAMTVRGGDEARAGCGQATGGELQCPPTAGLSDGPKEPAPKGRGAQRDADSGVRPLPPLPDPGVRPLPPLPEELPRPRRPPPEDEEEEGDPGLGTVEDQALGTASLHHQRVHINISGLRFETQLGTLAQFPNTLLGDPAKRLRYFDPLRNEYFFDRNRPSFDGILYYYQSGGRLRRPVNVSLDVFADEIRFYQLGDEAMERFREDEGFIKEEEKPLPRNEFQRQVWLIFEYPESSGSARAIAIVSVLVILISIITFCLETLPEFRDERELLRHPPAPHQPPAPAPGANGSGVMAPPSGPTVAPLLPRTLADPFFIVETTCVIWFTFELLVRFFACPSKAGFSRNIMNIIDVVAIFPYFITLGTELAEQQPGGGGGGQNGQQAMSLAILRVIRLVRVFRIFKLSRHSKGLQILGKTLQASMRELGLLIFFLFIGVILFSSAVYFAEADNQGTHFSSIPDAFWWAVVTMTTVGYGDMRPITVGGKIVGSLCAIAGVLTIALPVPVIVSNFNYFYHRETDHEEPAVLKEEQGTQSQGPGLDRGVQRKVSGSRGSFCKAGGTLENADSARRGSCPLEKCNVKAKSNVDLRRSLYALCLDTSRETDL", "test": "Whole cell patch clamp, inhibition of Kv1.5 current in CHO cells", "format": "cell-based", "conditions": "for IC50: Kv1.5, whole cell patch clamp, approx. values, read-out: 50% Channel Inhibition (IC50)", "description": "(§1) 4. Electrophysiological Studies\n(§2) Electrophysiological recordings of native channels in cells and cell lines, cloned and expressed channels in cells (e.g., CHO cells) as well as isolated cardiac myocytes were performed using the whole cell configuration of the patch clamp technique (Hamill et al., Pflugers Archiv 391:85, 1981). Cell lines were prepared as described above (cloning, etc.). Rat and human cardiac myocytes were isolated using the methods described in Castle and Slawsky, J. Pharmacol. Exp. Ther. 264:1450, 1993 and Wang et al., Circ. Res., 73:1061, 1993, respectively. Cells were plated on glass coverslips at a density of 2×10^4 cells/coverslip and used within 24-48 hours for cultured cell lines and within 6 hours for isolated cardiac myocytes. The coverslips were placed in a small chamber (volume ~200 μl) on the mechanical stage of an inverted microscope and perfused (2 ml/min) with extracellular recording solution. Drug application was achieved via a series of narrow-bore glass capillary tubes (inner diameter ~100 μm) positioned approximately 200 μm from the cell. Application of voltage-clamp pulses, data acquisition and the analysis were controlled by a 75 MHz Pentium computer using pCLAMP 6.0 software (Axon Instruments Inc. Foster City, Calif.).\n500 ms voltage clamp steps from -80 mV to +60 mV were applied to individual cells every 20 seconds for Kv1.5 and every 60 seconds for Kv1.3."}, "human T lymphocytes": {"test_system": "human T lymphocytes", "test": "T-lymphocyte proliferation assay (PHA-stimulated 3H-thymidine incorporation)", "format": "cell-based", "conditions": "compared to PHA-only controls; 10 μM compound 4, 1 nM margatoxin, 50 nM charybdotoxin; PHA 1.25 or 2.5 μg/ml", "method": "Lymphocyte Proliferation Studies\n(§4) A T-lymphocyte proliferation assay was performed using human peripheral T-lymphocytes isolated by centrifugation on lymphocyte separation medium (Organon Teknika) followed by adherence of non-T cells on nylon wool. […] 100 μl of cells/well was dispensed into a 96-well plate. Cells were stimulated with phytohemoagglutinin (1.25 or 2.5 μg/ml final concentration) in the presence or absence of various antagonists for 3 days. On the fourth day, cells were pulsed with [^3 ]thymidine for an additional 18 hours and harvested on glass fiber filtermats with extensive washing. Mats were counted in a Wallac Microbeta liquid scintillation counter using melt-on scintillant. Additional wells were counted at the end of the 18 hour period to determine if the drug treatments caused cellular toxicity."}, "rat cardiac myocytes": {"test_system": "rat cardiac myocytes", "test": "Action potential prolongation in rat cardiac myocytes", "format": "cell-based", "conditions": "1 μM, 2 min application", "description": "as §1, §2\n(§3) A functional consequence of potassium channel inhibition in the heart is a prolongation of the action potential duration. […]"}, "[2]": {"test_system": "IKur in human atrial myocytes", "test": "Inhibition of IKur currents in isolated human atrial myocytes", "format": "cell-based", "description": "as §1, §2"}, "[3]": {"biological_target": "T1, human Kv1.5 potassium channel", "test": "86Rubidium efflux from CHO cell monolayers expressing Kv1.5", "format": "cell-based", "conditions": "10 μM compound 4; 15 minute period; n=4", "method": "(§5) 2. ^86 Rubidium Efflux From Cell Monolayers\nCHO cells stably transfected with either human Kv1.5 or Kv1.3 as well as nontransfected cells were grown to approximately 90% confluence in 24 well tissue culture plates. Tissue culture growth medium was then removed and replaced with 1 ml of Iscoves modified DMEM containing ^86 Rb at a concentration of 1 μCi/ml and incubated for three hours at 37° C. to permit intracellular uptake of the isotope. At the end of the incubation period, the ^86 Rb solution was aspirated and the cells washed three times with Earls Balanced Salt Solution (EBSS). The cells were then incubated for 15 minutes at room temperature in 0.6 ml/well of EBSS or EBSS containing the compounds to be tested. At the end of this period, a 0.3 ml sample was taken for analysis to determine basal efflux of ^86 Rb. To each well was then added 0.3 ml of a modified high KCl EBSS, containing 125 mM KCl (NaCl replaced by KCl; final KCl concentration in each well was 65 nM) and the compounds to be tested. […] Samples were counted in a Wallac Microbeta Liquid Scintillation counter by Cerenkov emission. Efflux was expressed as a percentage of the initial cell content of ^86 Rb.\n(§6) Values are means ±s.e. (n=4) of the amount of ^86 Rb released in a 15 minute period and are expressed as a percentage of the initial cell content."}, "[4]": {"biological_target": "T2, human Kv1.3 potassium channel (Homo sapiens, UniProt P22001)", "T2 sequence (P22001 whole entry)": "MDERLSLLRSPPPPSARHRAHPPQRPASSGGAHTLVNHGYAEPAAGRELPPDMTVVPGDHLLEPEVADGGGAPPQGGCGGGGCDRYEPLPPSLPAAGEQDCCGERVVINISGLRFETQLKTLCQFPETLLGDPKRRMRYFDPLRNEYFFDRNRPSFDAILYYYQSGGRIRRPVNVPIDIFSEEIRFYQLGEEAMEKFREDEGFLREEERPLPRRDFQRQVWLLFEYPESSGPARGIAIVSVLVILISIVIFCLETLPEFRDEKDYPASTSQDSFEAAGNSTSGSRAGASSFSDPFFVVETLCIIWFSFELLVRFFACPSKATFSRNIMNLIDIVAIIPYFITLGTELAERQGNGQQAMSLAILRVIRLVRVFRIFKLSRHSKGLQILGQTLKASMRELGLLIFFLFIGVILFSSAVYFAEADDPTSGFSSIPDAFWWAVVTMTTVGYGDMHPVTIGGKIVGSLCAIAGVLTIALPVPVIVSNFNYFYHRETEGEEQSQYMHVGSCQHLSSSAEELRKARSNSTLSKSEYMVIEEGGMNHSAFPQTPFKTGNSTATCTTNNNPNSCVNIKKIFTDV", "test": "86Rubidium efflux from CHO cell monolayers expressing Kv1.3", "format": "cell-based", "conditions": "for inhibition of 60 mM KCl evoked increase in 86Rb efflux rate (Kv1.3): preexposure to 5 nM margatoxin or 10 μM compound 4, 15 minute period, n=4", "method": "Stable clones were tested for voltage-gated potassium channel expression using a ^86 rubidium (^86 Rb) ion flux assay (see below for methodology).\nas §5\nCHO cells stably transfected with either human Kv1.5 or Kv1.3 as well as nontransfected cells were grown to approximately 90% confluence in 24 well tissue culture plates. Tissue culture growth medium was then removed and replaced with 1 ml of Iscoves modified DMEM containing ^86 Rb at a concentration of 1 μCi/ml and incubated for three hours at 37° C. to permit intracellular uptake of the isotope. At the end of the incubation period, the ^86 Rb solution was aspirated and the cells washed three times with Earls Balanced Salt Solution (EBSS). The cells were then incubated for 15 minutes at room temperature in 0.6 ml/well of EBSS or EBSS containing the compounds to be tested. At the end of this period, a 0.3 ml sample was taken for analysis to determine basal efflux of ^86 Rb. To each well was then added 0.3 ml of a modified high KCl EBSS, containing 125 mM KCl (NaCl replaced by KCl; final KCl concentration in each well was 65 nM) and the compounds to be tested. The high KCl concentration was utilized to depolarize the cells to membrane potentials that would activate Kv1.3 and Kv1.5 channels. After a 15 minute incubation, another 0.3 ml sample was taken for analysis. Finally 0.3 ml of 0.2% sodium dodecyl sulfate in EBSS was added to each well to lyse the cells. Of this lysate 0.3 ml was taken for analysis to determine final cell content of ^86 Rb. Samples were counted in a Wallac Microbeta Liquid Scintillation counter by Cerenkov emission. Efflux was expressed as a percentage of the initial cell content of ^86 Rb.\nas §6"}, "human atrial myocytes": {"test_system": "human atrial myocytes", "test": "Action potential prolongation in isolated human atrial myocytes", "format": "cell-based", "description": "as §1, §2, §3"}, "[5]": {"biological_target": "T2, human Kv1.3 potassium channel", "test": "Whole cell patch clamp, inhibition of Kv1.3 current in CHO cells", "format": "cell-based", "conditions": "10 μM, 5 min preincubation; steps -80 mV to +60 mV every 60 seconds", "description": "as §1\nas §2, with “Calif.). […]” for “Calif.).”"}, "nontransfected CHO cells": {"test_system": "nontransfected CHO cells", "test": "Fluorescence measurement of cell membrane potential (DiBac4(3)) in non-transfected CHO cells", "format": "cell-based, Chinese hamster", "conditions": "10 μM; CHO-WT"}, "[6]": {"biological_target": "T2, human Kv1.3 potassium channel", "test": "Fluorescence measurement of cell membrane potential (DiBac4(3)) in CHO cells expressing Kv1.3", "format": "cell-based", "conditions": "10 μM; compared with margatoxin; CHO cells expressing human Kv1.3", "method": "Fluorescence Measurement of Cell Membrane Potential\nCHO cells stably transfected with genes encoding human voltage gated potassium channels were grown to 80-90% confluency in 96 well tissue culture plates. On the experimental day, they were repeatedly contacted with a modified EBSS (116 mM NaCl, 5.4 mM KCl, 1.8 mM CaCl2, 0.8 mM MgCl2, 20 mM HEPES, 5 nM glucose; pH 7.4, 300 mOsm) plus 5 μM of the voltage-sensitive oxonol dye, bis-(1,3-dibutylbarbituric acid)trimethine oxonol (DiBac4 (3)). Dibac4 (3) binds to intracellular proteins in a membrane potential-dependent process, changing the effective concentration of fluorescing molecules. […] The cells in each well were then incubated in EBSS+5 μM DiBac4 (3) at 37° C. for 30 minutes. The 96 well plate was then placed in a 35° C. temperature controlled chamber within a laser based fluorescence imaging plate reader (NovelTech Inc.). Data were collected every 60 seconds for periods ranging from 20 to 40 min. To permit comparative quantification of the magnitude of drug induced changes in the fluorescence signal, changes were compared to the addition of EBSS+5 μM DiBac4 (3) without drug and EBSS+5 μM DiBac4 (3)+30 mM KCl without drug, and expressed as a percentage of the increase in fluorescence induced by exposure of the cells to 30 mM KCl. […]"}, "human T-lymphocytes": {"test_system": "human T-lymphocytes", "test": "Toxicity to human T-lymphocytes (cell viability)", "format": "cell-based", "conditions": "10 μM, 90 hours of exposure", "method": "as §4"}}, "data": [{"molecule": "CCc1ccc(S(=O)(=O)NC2c3cc(NC(=O)c4ccccc4F)ccc3CC2O)cc1", "note": "(stereo not drawn) [Compound 17]", "values": [{"measurement": "IC50", "setting": "[1]", "value": "> 1000", "unit": "nM"}]}, {"molecule": "COc1cccc(C(=O)Nc2ccc3c(c2)C(NS(=O)(=O)c2ccccc2)C(O)C3)c1", "note": "(stereo not drawn) [Compound 12]", "values": [{"measurement": "IC50", "setting": "[1]", "value": "> 1000", "unit": "nM"}]}, {"molecule": "CCc1ccc(S(=O)(=O)NC2c3cc(NC(=O)c4cccc(C)c4)ccc3CC2O)cc1", "note": "(stereo not drawn) [Compound 2]", "values": [{"measurement": "IC50", "setting": "[1]", "value": "~1000", "unit": "nM"}]}, {"molecule": "charybdotoxin", "values": [{"measurement": "inhibition of lymphocyte proliferation", "setting": "human T lymphocytes", "value": "inhibited lymphocyte proliferation to a similar extent"}]}, {"molecule": "COc1cccc(C(=O)Nc2ccc3c(c2)C(NS(=O)(=O)c2ccc4ccccc4c2)C(O)C3)c1", "note": "(stereo not drawn) [Compound 16]", "values": [{"measurement": "IC50", "setting": "[1]", "value": "~1000", "unit": "nM"}]}, {"molecule": "CCc1ccc(S(=O)(=O)N[C@H]2c3cc(NC(=O)c4cccc(OC)c4)ccc3C[C@@H]2O)cc1", "note": "(relative stereo) [Compound 4, 1-(p-ethylphenyl)sulfimide-2-hydroxy-6-(m-methoxy)benzamido-indane]", "values": [{"measurement": "prolongation of the action potential (rat)", "setting": "rat cardiac myocytes", "value": "prolongs the action potential"}, {"measurement": "inhibition at 1 µM", "setting": "[2]", "value": "> 50", "unit": "%"}, {"measurement": "inhibition of potassium currents (Kv1.5)", "setting": "[1]; 10 μM, 5 min preincubation, steps -80 mV to +60 mV every 20 seconds", "value": "inhibition of potassium currents"}, {"measurement": "IC50", "setting": "[1]", "value": "~100", "unit": "nM"}, {"measurement": "inhibition of KCl evoked increase in 86Rb efflux rate (Kv1.5)", "setting": "[3]", "value": "completely inhibited"}, {"measurement": "inhibition of 60 mM KCl evoked increase in 86Rb efflux rate (Kv1.3)", "setting": "[4]", "value": "completely abolished"}, {"measurement": "activation at 1 µM", "setting": "human atrial myocytes", "value": "> 50", "unit": "%"}, {"measurement": "inhibition of potassium currents (Kv1.3)", "setting": "[5]", "value": "inhibition of potassium currents"}, {"measurement": "compound-induced depolarization (nontransfected cells)", "setting": "nontransfected CHO cells", "value": "absent"}, {"measurement": "cell membrane depolarization (Kv1.3)", "setting": "[6]", "value": "produced a depolarization similar in magnitude to that induced by the Kv1.3-specific blocking toxin margatoxin"}, {"measurement": "cell viability / toxicity to human T-lymphocytes", "setting": "human T-lymphocytes", "value": "no decrease in cell viability"}, {"measurement": "inhibition of lymphocyte proliferation", "setting": "human T lymphocytes", "value": "inhibited lymphocyte proliferation to a similar extent"}]}, {"molecule": "CCc1ccc(S(=O)(=O)NC2c3cc(NC(=O)CCC4CCCC4)ccc3CC2O)cc1", "note": "(stereo not drawn) [Compound 11]", "values": [{"measurement": "IC50", "setting": "[1]", "value": "~1000", "unit": "nM"}]}, {"molecule": "CCc1ccc(S(=O)(=O)NC2c3cc(NC(=O)C4CC5CCC4CC5)ccc3CC2O)cc1", "note": "(stereo not drawn) [Compound 13]", "values": [{"measurement": "IC50", "setting": "[1]", "value": "~1000", "unit": "nM"}]}, {"molecule": "CCCCCOc1ccc(C(=O)Nc2ccc3c(c2)C(NS(=O)(=O)c2ccc(CC)cc2)C(O)C3)cc1", "note": "(stereo not drawn) [Compound 15]", "values": [{"measurement": "IC50", "setting": "[1]", "value": "~1000", "unit": "nM"}]}, {"molecule": "COc1ccc(S(=O)(=O)NC2c3cc(NC(=O)c4cccc(OC)c4)ccc3CC2O)cc1", "note": "(stereo not drawn) [Compound 10]", "values": [{"measurement": "IC50", "setting": "[1]", "value": "> 1000", "unit": "nM"}]}, {"molecule": "margatoxin (TIINVKCTSPKQCLPPCKAQFGQSAGAKCMNGKCKCYPH; UniProt P40755 1-39, looked up)", "values": [{"measurement": "inhibition of KCl-stimulated 86Rb efflux", "setting": "[4]; margatoxin present, four positive Kv1.3 clones", "value": "approximately 95%"}, {"measurement": "inhibition of 60 mM KCl evoked increase in 86Rb efflux rate (Kv1.3)", "setting": "[4]", "value": "completely abolished"}, {"measurement": "inhibition of lymphocyte proliferation", "setting": "human T lymphocytes", "value": "inhibited lymphocyte proliferation to a similar extent"}]}]}
